Measured values: patent publication US4889860A (Nova Pharmaceutical Corporation, priority 1987, dated 1989)

Assays:
[1] = food intake in 24 hr food-deprived rats; assay type: in vivo, rat; conditions: for Food Intake in Grams: Table 3, 24 hr; for Cumulative Food Intake in Grams: Table 4
Experimental: Rats were given water and powdered food ad lib for 8 days until food intake had stabilized, and body weight and food and water intakes were recorded at the same time every day. Animals were assigned to treatment groups matched on the basis of their 24 hr food consumption on the last baseline day, and rats were food deprived for 24 hr immediately before injection of the test compound. […] The compound of Example XII was injected S.C. at doses of 1.15, 2.31, 11.55 and 23.09 μmol/kg, in a volume of 4 ml/kg of 0.3% acetic acid. Controls were injected with the vehicle solutions in the appropriate volumes. Food and water intakes were measured at 1, 3 and 24 hr after treatment. Data for each measure and time point were analyzed by one-way analysis of variance (ANOVA), and post-hoc comparisons were performed using Dunnett's test in order to compare the control mean to each of the treatment means.
Rats were given water and powdered food for 8 days, and following this,
Testing was performed as described above, and baseline measurements were recorded for 7 days. […] The compound of Example XII was injected at doses of 11.55, 23.09, 46.19 and 92.38 μmol/kg by suspension in a solution of 1:1 DMSO:water in a volume of 3 ml/kg. Food and water intakes were recorded at 1, 2, 4 and 6 h following treatment.
See Table 3 for experimental details, except that baseline measures were […]

[2] = biological target: T1, mu-type opioid receptor (Rattus norvegicus, UniProt P33535); assay: inhibition of specific [^3 H] DAGO binding to rat forebrain membranes
T1 construct: using rat forebrain membranes; from tissue; host or cells: rat forebrain membranes
T1 sequence (P33535 whole entry): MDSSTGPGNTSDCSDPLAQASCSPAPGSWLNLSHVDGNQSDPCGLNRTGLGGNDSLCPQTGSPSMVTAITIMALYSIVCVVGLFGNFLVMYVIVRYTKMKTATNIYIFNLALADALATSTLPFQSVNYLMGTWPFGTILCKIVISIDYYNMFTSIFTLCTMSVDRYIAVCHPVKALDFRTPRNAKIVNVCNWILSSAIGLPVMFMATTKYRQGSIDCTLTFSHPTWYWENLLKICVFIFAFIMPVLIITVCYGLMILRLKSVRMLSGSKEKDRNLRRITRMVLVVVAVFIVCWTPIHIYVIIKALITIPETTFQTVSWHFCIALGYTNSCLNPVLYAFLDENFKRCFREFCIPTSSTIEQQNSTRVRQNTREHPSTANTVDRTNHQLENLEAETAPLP

Structure (SMILES): Oc1ccc2c3c1O[C@H]1C(=NOc4ccccc4)CC[C@@]4(O)[C@@H](C2)N(CC2CC2)CC[C@]314 [Example XII, 6-Phenyloximino-17-cyclopropylmethyl-4,5 α-epoxy-3, 14-dihydroxymorphinan]
- Food Intake in Grams ([1]; S.C. 1.15 μmol/kg): 33.3 ± 1.6 Grams
- Food Intake in Grams ([1]; S.C. 2.31 μmol/kg): 31.0 ± 2.0 Grams
- Food Intake in Grams ([1]; S.C. 11.55 μmol/kg): 41.7 ± 7.4 Grams
- Food Intake in Grams ([1]; S.C. 23.09 μmol/kg): 37.6 ± 5.6 Grams
- Cumulative Food Intake in Grams ([1]; S.C. 11.55 μmol/kg, 0-1 Hr): 2.0 ± 1.0 Grams
- Cumulative Food Intake in Grams ([1]; S.C. 11.55 μmol/kg, 0-2 Hr): 2.0 ± 1.0 Grams
- Cumulative Food Intake in Grams ([1]; S.C. 11.55 μmol/kg, 0-4 Hr): 2.8 ± 0.9 Grams
- Cumulative Food Intake in Grams ([1]; S.C. 11.55 μmol/kg, 0-6 Hr): 3.6 ± 1.3 Grams
- Cumulative Food Intake in Grams ([1]; S.C. 23.09 μmol/kg, 0-1 Hr): 2.0 ± 0.7 Grams
- Cumulative Food Intake in Grams ([1]; S.C. 23.09 μmol/kg, 0-2 Hr): 2.4 ± 0.8 Grams
- Cumulative Food Intake in Grams ([1]; S.C. 23.09 μmol/kg, 0-4 Hr): 3.6 ± 1.5 Grams
- Cumulative Food Intake in Grams ([1]; S.C. 23.09 μmol/kg, 0-6 Hr): 3.6 ± 1.5 Grams
- Cumulative Food Intake in Grams ([1]; S.C. 46.19 μmol/kg, 0-1 Hr): 2.8 ± 0.6 Grams
- Cumulative Food Intake in Grams ([1]; S.C. 46.19 μmol/kg, 0-2 Hr): 2.8 ± 0.6 Grams
- Cumulative Food Intake in Grams ([1]; S.C. 46.19 μmol/kg, 0-4 Hr): 3.2 ± 0.6 Grams
- Cumulative Food Intake in Grams ([1]; S.C. 46.19 μmol/kg, 0-6 Hr): 3.6 ± 0.8 Grams
- Cumulative Food Intake in Grams ([1]; S.C. 92.38 μmol/kg, 0-1 Hr): 3.2 ± 0.6 Grams
- Cumulative Food Intake in Grams ([1]; S.C. 92.38 μmol/kg, 0-2 Hr): 3.2 ± 0.6 Grams
- Cumulative Food Intake in Grams ([1]; S.C. 92.38 μmol/kg, 0-4 Hr): 4.0 ± 0.7 Grams
- Cumulative Food Intake in Grams ([1]; S.C. 92.38 μmol/kg, 0-6 Hr): 4.8 ± 1.1 Grams
- Ki ([2]; (Ki) nM, μ receptor (Rat Forebrain), Table 6, [^3 H] DAGO, mean of three experiments): 0.3 nM
- Ki ([2]; Ki, inhibition of specific [^3 H] DAGO binding, Tables 1 and 2, rat brain membranes, MEAN±S.E.M.): 0.21 ± 0.08 nM
